Tests used:
Assay in all cases: cells
Format in all cases: functional, cell-based, Homo sapiens
D-336MG = tested on: D-336MG
Description: SANGER: Inhibition of human D-336MG cell growth in a cell viability assay.

DK-MG = tested on: DK-MG;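 note: growth inhibition of DK-MG cells, read out with a cell viability assay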
Description: SANGER: Inhibition of human DK-MG cell growth in a cell viability assay.

ESS-1 = tested on: ESS-1;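 note: growth inhibition of human ESS-1 cells, read out by a cell viability assay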
Description: SANGER: Inhibition of human ESS-1 cell growth in a cell viability assay.

FaDu = tested on: FaDu;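 note: cell viability readout of growth inhibition in FaDu cells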
Description: SANGER: Inhibition of human FADU cell growth in a cell viability assay.

G-401 = tested on: G-401
Description: SANGER: Inhibition of human G-401 cell growth in a cell viability assay.

H4 = tested on: H4
Description: SANGER: Inhibition of human H4 cell growth in a cell viability assay.

HCC1806 = tested on: HCC1806;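 note: growth inhibition of the cancer cell line, determined with a cell viability assay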
Description: SANGER: Inhibition of human HCC1806 cell growth in a cell viability assay.

HPAF-II = tested on: HPAF-II;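 note: growth inhibition of HPAF-II cells, read out with a cell viability assay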
Description: SANGER: Inhibition of human HPAF-II cell growth in a cell viability assay.

HTC-C3 = tested on: HTC-C3;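 note: inhibition of cell growth, read out with a cell viability assay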
Description: SANGER: Inhibition of human HTC-C3 cell growth in a cell viability assay.

KYSE-140 = tested on: KYSE-140;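 note: cell viability assay measuring growth inhibition in human KYSE-140 cells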
Description: SANGER: Inhibition of human KYSE-140 cell growth in a cell viability assay.

KYSE-450 = tested on: KYSE-450;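 note: cell growth inhibition measured by a viability assay in human KYSE-450 cells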
Description: SANGER: Inhibition of human KYSE-450 cell growth in a cell viability assay.

LK-2 = tested on: LK-2;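 note: growth inhibition of LK-2 cells, read out with a viability assay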
Description: SANGER: Inhibition of human LK-2 cell growth in a cell viability assay.

MC-IXC = tested on: MC-IXC;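 note: growth inhibition of MC-IXC cells, read out with a cell viability assay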
Description: SANGER: Inhibition of human MC-IXC cell growth in a cell viability assay.

MG-63 = tested on: MG-63;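 note: growth inhibition of human MG-63 cells, read out with a cell viability assay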
Description: SANGER: Inhibition of human MG-63 cell growth in a cell viability assay.

MKN-45 = tested on: MKN-45;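 note: growth inhibition of human MKN-45 cells, measured with a cell viability assay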
Description: SANGER: Inhibition of human MKN45 cell growth in a cell viability assay.

NCI-H1792 = tested on: NCI-H1792;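 note: growth inhibition of human NCI-H1792 cells, read out as cell viability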
Description: SANGER: Inhibition of human NCI-H1792 cell growth in a cell viability assay.

NCI-H1793 = tested on: NCI-H1793;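 note: cell growth inhibition, read out by a cell viability assay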
Description: SANGER: Inhibition of human NCI-H1793 cell growth in a cell viability assay.

NCI-H2009 = tested on: NCI-H2009;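 note: cell viability assay measuring inhibition of NCI-H2009 cell growth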
Description: SANGER: Inhibition of human NCI-H2009 cell growth in a cell viability assay.

NCI-H2122 = tested on: NCI-H2122;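 note: growth inhibition of the cells, read out with a cell viability assay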
Description: SANGER: Inhibition of human NCI-H2122 cell growth in a cell viability assay.

NCI-H2405 = tested on: NCI-H2405;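 note: growth inhibition of the human cell line, read out with a cell viability assay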
Description: SANGER: Inhibition of human NCI-H2405 cell growth in a cell viability assay.

NCI-H460 = tested on: NCI-H460;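 note: cell viability assay scoring growth inhibition of human NCI-H460 cells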
Description: SANGER: Inhibition of human NCI-H460 cell growth in a cell viability assay.

NCI-H650 = tested on: NCI-H650;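 note: growth inhibition of NCI-H650 cells, read out by a viability assay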
Description: SANGER: Inhibition of human NCI-H650 cell growth in a cell viability assay.

P12-Ichikawa = tested on: P12-Ichikawa
RT-112 = tested on: RT-112
Description: SANGER: Inhibition of human RT-112 cell growth in a cell viability assay.

SK-N-AS = tested on: SK-N-AS;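 note: growth inhibition of human SK-N-AS cells, measured with a cell viability assay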
Description: SANGER: Inhibition of human SK-N-AS cell growth in a cell viability assay.

SW1088 = tested on: SW1088;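 note: growth inhibition of human SW1088 cells, read out by a cell viability assay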
Description: SANGER: Inhibition of human SW1088 cell growth in a cell viability assay.

SW1710 = tested on: SW1710;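 note: growth inhibition of SW1710 cells, determined with a cell viability assay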
Description: SANGER: Inhibition of human SW1710 cell growth in a cell viability assay.

SW837 = tested on: SW837;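 note: growth inhibition of SW837 cells, determined with a cell viability assay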
Description: SANGER: Inhibition of human SW837 cell growth in a cell viability assay.

769-P = tested on: 769-P
Description: SANGER: Inhibition of human 769-P cell growth in a cell viability assay.

AGS = tested on: AGS;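 note: growth inhibition of AGS cells, determined with a cell viability assay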
Description: SANGER: Inhibition of human AGS cell growth in a cell viability assay.

CAL-27 = tested on: CAL-27;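 note: Viability-based readout, IC50 reflecting inhibition of CAL-27 cell growth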
Description: SANGER: Inhibition of human CAL-27 cell growth in a cell viability assay.

CAL-39 = tested on: CAL-39;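 note: cell viability assay measuring growth inhibition of CAL-39 cells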
Description: SANGER: Inhibition of human CAL-39 cell growth in a cell viability assay.

CAL-51 = tested on: CAL-51;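 note: human CAL-51 cell line, growth inhibition read out via a cell viability assay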
Description: SANGER: Inhibition of human CAL-51 cell growth in a cell viability assay.

CAL-72 = tested on: CAL-72;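 note: cell viability assay measuring inhibition of proliferation in the CAL-72 cell line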
Description: SANGER: Inhibition of human CAL-72 cell growth in a cell viability assay.

UACC-893 = tested on: UACC-893
Description: SANGER: Inhibition of human UACC-893 cell growth in a cell viability assay.

YAPC = tested on: YAPC;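 note: growth inhibition of YAPC cells, measured with a cell viability assay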
Description: SANGER: Inhibition of human YAPC cell growth in a cell viability assay.

YKG-1 = tested on: YKG-1;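 note: cell growth inhibition, read out with a viability assay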
Description: SANGER: Inhibition of human YKG-1 cell growth in a cell viability assay.

CO[C@H]1C[C@@H]2CC[C@@H](C)[C@@](O)(O2)C(=O)C(=O)N2CCCC[C@H]2C(=O)O[C@H]([C@H](C)C[C@@H]2CC[C@@H](OC(=O)C(C)(CO)CO)[C@H](OC)C2)CC(=O)[C@H](C)/C=C(\C)[C@@H](O)[C@@H](OC)C(=O)[C@H](C)C[C@H](C)/C=C/C=C/C=C/1C [TEMSIROLIMUS]
IC50 (D-336MG; Homo sapiens, D-336MG): 0.076 µM | IC50 (DK-MG; Homo sapiens, DK-MG): > 0.2 µM | IC50 (ESS-1; Homo sapiens, ESS-1): > 0.2 µM | IC50 (FaDu; Homo sapiens, FaDu): > 0.2 µM | IC50 (G-401; Homo sapiens, G-401): 0.089 µM | IC50 (H4; Homo sapiens, H4): 0.00107 µM | IC50 (HCC1806; Homo sapiens, HCC1806): > 0.2 µM | IC50 (HPAF-II; Homo sapiens, HPAF-II): > 0.2 µM | IC50 (HTC-C3; Homo sapiens, HTC-C3): 0.0682 µM | IC50 (KYSE-140; Homo sapiens, KYSE-140): 0.156 µM | IC50 (KYSE-450; Homo sapiens, KYSE-450): > 0.2 µM | IC50 (LK-2; Homo sapiens, LK-2): > 0.2 µM | IC50 (MC-IXC; Homo sapiens, MC-IXC): > 0.2 µM | IC50 (MG-63; Homo sapiens, MG-63): 0.134 µM | IC50 (MKN-45; Homo sapiens, MKN-45): > 0.2 µM | IC50 (NCI-H1792; Homo sapiens, NCI-H1792): > 0.2 µM | IC50 (NCI-H1793; Homo sapiens, NCI-H1793): 0.0457 µM | IC50 (NCI-H2009; Homo sapiens, NCI-H2009): > 0.2 µM | IC50 (NCI-H2122; Homo sapiens, NCI-H2122): > 0.2 µM | IC50 (NCI-H2405; Homo sapiens, NCI-H2405): > 0.2 µM | IC50 (NCI-H460; Homo sapiens, NCI-H460): > 0.2 µM | IC50 (NCI-H650; Homo sapiens, NCI-H650): > 0.2 µM | IC50 (P12-Ichikawa; Homo sapiens, P12-Ichikawa): 0.013 µM | IC50 (RT-112; Homo sapiens, RT-112): 0.0471 µM | IC50 (SK-N-AS; Homo sapiens, SK-N-AS): 0.127 µM | IC50 (SW1088; Homo sapiens, SW1088): 0.0318 µM | IC50 (SW1710; Homo sapiens, SW1710): 0.189 µM | IC50 (SW837; Homo sapiens, SW837): > 0.2 µM | IC50 (769-P; Homo sapiens, 769-P): > 0.2 µM | IC50 (AGS; Homo sapiens, AGS): 0.0141 µM | IC50 (CAL-27; Homo sapiens, CAL-27): > 0.2 µM | IC50 (CAL-39; Homo sapiens, CAL-39): 0.0401 µM | IC50 (CAL-51; Homo sapiens, CAL-51): > 0.2 µM | IC50 (CAL-72; Homo sapiens, CAL-72): > 0.2 µM | IC50 (UACC-893; Homo sapiens, UACC-893): > 0.2 µM | IC50 (YAPC; Homo sapiens, YAPC): > 0.2 µM | IC50 (YKG-1; Homo sapiens, YKG-1): > 0.2 µM

Nc1cccc2c1CN(C1CCC(=O)NC1=O)C2=O (configuration not stated) [LENALIDOMIDE]
IC50 (D-336MG; Homo sapiens, D-336MG): > 5 µM | IC50 (DK-MG; Homo sapiens, DK-MG): > 5 µM | IC50 (ESS-1; Homo sapiens, ESS-1): > 5 µM | IC50 (FaDu; Homo sapiens, FaDu): > 5 µM | IC50 (G-401; Homo sapiens, G-401): > 5 µM | IC50 (H4; Homo sapiens, H4): > 5 µM | IC50 (HCC1806; Homo sapiens, HCC1806): > 5 µM | IC50 (HPAF-II; Homo sapiens, HPAF-II): > 5 µM | IC50 (HTC-C3; Homo sapiens, HTC-C3): > 5 µM | IC50 (KYSE-140; Homo sapiens, KYSE-140): > 5 µM | IC50 (KYSE-450; Homo sapiens, KYSE-450): > 5 µM | IC50 (LK-2; Homo sapiens, LK-2): > 5 µM | IC50 (MC-IXC; Homo sapiens, MC-IXC): > 5 µM | IC50 (MG-63; Homo sapiens, MG-63): > 5 µM | IC50 (MKN-45; Homo sapiens, MKN-45): > 5 µM | IC50 (NCI-H1792; Homo sapiens, NCI-H1792): > 5 µM | IC50 (NCI-H1793; Homo sapiens, NCI-H1793): > 5 µM | IC50 (NCI-H2009; Homo sapiens, NCI-H2009): > 5 µM | IC50 (NCI-H2122; Homo sapiens, NCI-H2122): > 5 µM | IC50 (NCI-H2405; Homo sapiens, NCI-H2405): > 5 µM | IC50 (NCI-H460; Homo sapiens, NCI-H460): > 5 µM | IC50 (NCI-H650; Homo sapiens, NCI-H650): > 5 µM | IC50 (P12-Ichikawa; Homo sapiens, P12-Ichikawa): > 5 µM | IC50 (RT-112; Homo sapiens, RT-112): > 5 µM | IC50 (SK-N-AS; Homo sapiens, SK-N-AS): > 5 µM | IC50 (SW1088; Homo sapiens, SW1088): > 5 µM | IC50 (SW1710; Homo sapiens, SW1710): > 5 µM | IC50 (SW837; Homo sapiens, SW837): > 5 µM | IC50 (769-P; Homo sapiens, 769-P): > 5 µM | IC50 (AGS; Homo sapiens, AGS): > 5 µM | IC50 (CAL-27; Homo sapiens, CAL-27): > 5 µM | IC50 (CAL-39; Homo sapiens, CAL-39): > 5 µM | IC50 (CAL-51; Homo sapiens, CAL-51): > 5 µM | IC50 (CAL-72; Homo sapiens, CAL-72): > 5 µM | IC50 (UACC-893; Homo sapiens, UACC-893): > 5 µM | IC50 (YAPC; Homo sapiens, YAPC): > 5 µM | IC50 (YKG-1; Homo sapiens, YKG-1): > 5 µM

CISPLATIN
IC50 (D-336MG; d-336mg): 33.9 µM | IC50 (DK-MG; dk-mg): 137 µM | IC50 (ESS-1; ess-1): 2.54 µM | IC50 (FaDu; fadu): 8.92 µM | IC50 (G-401; g-401): 7.25 µM | IC50 (H4; h4): 4.71 µM | IC50 (HCC1806; hcc1806): 7.33 µM | IC50 (HPAF-II; hpaf-ii): 114 µM | IC50 (HTC-C3; htc-c3): 4.49 µM | IC50 (KYSE-140; kyse-140): 7.59 µM | IC50 (KYSE-450; kyse-450): 72.8 µM | IC50 (LK-2; lk-2): 44.3 µM | IC50 (MC-IXC; mc-ixc): 1.68 µM | IC50 (MG-63; mg-63): 100 µM | IC50 (MKN-45; mkn-45): 28.6 µM | IC50 (NCI-H1792; nci-h1792): 14.9 µM | IC50 (NCI-H1793; nci-h1793): 19.1 µM | IC50 (NCI-H2009; nci-h2009): 496 µM | IC50 (NCI-H2122; nci-h2122): 15.3 µM | IC50 (NCI-H2405; nci-h2405): 22.7 µM | IC50 (NCI-H460; nci-h460): 345 µM | IC50 (NCI-H650; nci-h650): 29.9 µM | IC50 (P12-Ichikawa; p12-ichikawa): 2.04 µM | IC50 (RT-112; rt-112): 14.3 µM | IC50 (SK-N-AS; sk-n-as): 38 µM | IC50 (SW1088; sw1088): 9.7 µM | IC50 (SW1710; sw1710): 44.4 µM | IC50 (SW837; sw837): 190 µM | IC50 (769-P; 769-p): 16.2 µM | IC50 (AGS; ags): 24.6 µM | IC50 (CAL-27; cal-27): 6.69 µM | IC50 (CAL-39; cal-39): 287 µM | IC50 (CAL-51; cal-51): 16.4 µM | IC50 (CAL-72; cal-72): 23.4 µM | IC50 (UACC-893; uacc-893): 26.1 µM | IC50 (YAPC; yapc): 1160 µM | IC50 (YKG-1; ykg-1): 10.3 µM

CC(C)c1ccccc1Cc1cc(C(=O)Nc2ccc(S(=O)(=O)c3ccccc3C(C)(C)C)cc2)c(O)c(O)c1O
IC50 (D-336MG; Homo sapiens, D-336MG): 0.958 µM | IC50 (DK-MG; Homo sapiens, DK-MG): 2.9 µM | IC50 (ESS-1; Homo sapiens, ESS-1): 0.141 µM | IC50 (FaDu; Homo sapiens, FaDu): 0.526 µM | IC50 (G-401; Homo sapiens, G-401): 0.46 µM | IC50 (H4; Homo sapiens, H4): 0.408 µM | IC50 (HCC1806; Homo sapiens, HCC1806): 1.43 µM | IC50 (HPAF-II; Homo sapiens, HPAF-II): 0.228 µM | IC50 (HTC-C3; Homo sapiens, HTC-C3): 1.58 µM | IC50 (KYSE-140; Homo sapiens, KYSE-140): 0.186 µM | IC50 (KYSE-450; Homo sapiens, KYSE-450): 0.175 µM | IC50 (LK-2; Homo sapiens, LK-2): 1.5 µM | IC50 (MC-IXC; Homo sapiens, MC-IXC): 0.0753 µM | IC50 (MG-63; Homo sapiens, MG-63): 0.112 µM | IC50 (MKN-45; Homo sapiens, MKN-45): 0.338 µM | IC50 (NCI-H1792; Homo sapiens, NCI-H1792): 0.69 µM | IC50 (NCI-H1793; Homo sapiens, NCI-H1793): 0.745 µM | IC50 (NCI-H2009; Homo sapiens, NCI-H2009): 0.245 µM | IC50 (NCI-H2122; Homo sapiens, NCI-H2122): 0.538 µM | IC50 (NCI-H2405; Homo sapiens, NCI-H2405): 0.675 µM | IC50 (NCI-H460; Homo sapiens, NCI-H460): 0.306 µM | IC50 (NCI-H650; Homo sapiens, NCI-H650): 0.646 µM | IC50 (RT-112; Homo sapiens, RT-112): 0.535 µM | IC50 (SK-N-AS; Homo sapiens, SK-N-AS): 0.181 µM | IC50 (SW1088; Homo sapiens, SW1088): 0.455 µM | IC50 (SW1710; Homo sapiens, SW1710): 0.388 µM | IC50 (SW837; Homo sapiens, SW837): 2.39 µM | IC50 (769-P; Homo sapiens, 769-P): 0.137 µM | IC50 (AGS; Homo sapiens, AGS): 0.0375 µM | IC50 (CAL-27; Homo sapiens, CAL-27): 0.136 µM | IC50 (CAL-39; Homo sapiens, CAL-39): 0.341 µM | IC50 (CAL-51; Homo sapiens, CAL-51): 0.349 µM | IC50 (CAL-72; Homo sapiens, CAL-72): 0.968 µM | IC50 (UACC-893; Homo sapiens, UACC-893): 1.43 µM | IC50 (YAPC; Homo sapiens, YAPC): 0.801 µM | IC50 (YKG-1; Homo sapiens, YKG-1): 0.0298 µM
